# Data published in patent US12441754B2, “Galactoside inhibitor of galectins” (GALECTO BIOTECH AB, priority 2019, dated 2025).
# Legend:
# galectins = tested on: T1, galectins; conditions: cited from earlier work
# T1 construct: Kd, all galectins; other: compared with lactose
# Galectin-1 = Galectin-1 (Homo sapiens, UniProt P09382); experiment: fluorescence anisotropy assay, compound as inhibitor of galectin / fluorescein tagged saccharide probe interaction; type: binding
# From the text: (§1) Anal. Biochem. 334: 36-47, (Sörme et al., 2004) and Monovalent interactions of Galectin-1 By Salomonsson, Emma; Larumbe, Amaia; Tejler, Johan; Tullberg, Erik; Rydberg, Hanna; Sundin, Anders; Khabut, Areej; Frejd, Torbjorn; Lobsanov, Yuri D.; Rini, James M.; et al, From Biochemistry (2010), 49(44), 9518-9532, (Salomonsson et al., 2010).
# Galectin-3 = Galectin-3 (Homo sapiens, UniProt P17931); experiment: as above; type: binding
# From the text: as §1
# Chain of Galectin-3 (P17931 whole entry): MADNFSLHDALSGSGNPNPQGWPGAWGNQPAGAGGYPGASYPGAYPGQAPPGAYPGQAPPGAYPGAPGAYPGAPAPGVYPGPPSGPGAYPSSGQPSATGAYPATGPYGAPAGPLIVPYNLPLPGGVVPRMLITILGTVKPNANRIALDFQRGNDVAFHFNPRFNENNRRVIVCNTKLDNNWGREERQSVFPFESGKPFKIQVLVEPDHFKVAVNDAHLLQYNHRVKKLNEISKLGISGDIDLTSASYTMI
# Chain of Galectin-1 (P09382 whole entry): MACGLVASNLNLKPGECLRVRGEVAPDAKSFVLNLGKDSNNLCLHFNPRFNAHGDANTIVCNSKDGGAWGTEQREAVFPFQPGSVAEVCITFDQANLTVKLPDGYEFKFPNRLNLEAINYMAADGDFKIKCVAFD
Compound,affinity relative to lactose (times lower) (galectins; compared with lactose),Kd (Galectin-1),Kd (Galectin-3),"Kd (galectins; read-out: Kd, all galectins)"
O=C[C@H](O)[C@@H](O)[C@@H](O)[C@H](O)CO [D-galactose],50-100 times,,,
"C#Cc1cncc(S[C@H]2O[C@H](CO)[C@H](O)[C@H](n3cc(-c4csc(N)n4)nn3)[C@H]2OC)c1 [Example 81, 5-Ethynylpyridin-3-yl 3-[4-(2-aminothiazol-4-yl)-1H-1,2,3-triazol-1-yl]-3-deoxy-2-O-methyl-1-thio-α-D-galactopyranoside]",,0.19 µM,6.6 µM,
"CO[C@@H]1[C@@H](n2cc(-c3nc(Cl)cs3)nn2)[C@@H](O)[C@@H](CO)O[C@@H]1Sc1cncc(C#N)c1 [Example 82, 5-Cyanopyridin-3-yl 3-[4-(4-chlorothiazol-2-yl)-1H-1,2,3-triazol-1-yl]-3-deoxy-2-O-methyl-1-thio-α-D-galactopyranoside]",,0.17 µM,0.52 µM,
"CO[C@@H]1[C@@H](n2cc(-c3csc(O)n3)nn2)[C@@H](O)[C@@H](CO)O[C@@H]1Sc1cncc(C#N)c1 [Example 83, 5-Cyanopyridin-3-yl 3-deoxy-3-[4-(2-hydroxythiazol-4-yl)-1H-1,2,3-triazol-1-yl]-2-O-methyl-1-thio-α-D-galactopyranoside]",,0.15 µM,5.7 µM,
"C#Cc1cnc(C#N)c(S[C@H]2O[C@H](CO)[C@H](O)[C@H](n3cc(-c4csc(N)n4)nn3)[C@H]2O)c1 [Example 84, 2-Cyano-5-ethynylpyridin-3-yl 3-[4-(2-aminothiazol-4-yl)-1H-1,2,3-triazol-1-yl]-3-deoxy-1-thio-α-D-galactopyranoside]",,0.54 µM,4.1 µM,
"C#Cc1cnc(C#N)c(S[C@H]2O[C@H](CO)[C@H](O)[C@H](n3cc(-c4csc(N)n4)nn3)[C@H]2OC)c1 [Example 85, 2-Cyano-5-ethynylpyridin-3-yl 3-[4-(2-aminothiazol-4-yl)-1H-1,2,3-triazol-1-yl]-3-deoxy-2-O-methyl-1-thio-α-D-galactopyranoside]",,0.11 µM,7.7 µM,
"CCO[C@@H]1[C@@H](n2cc(-c3nc(Cl)cs3)nn2)[C@@H](O)[C@@H](CO)O[C@@H]1Sc1cc(Br)cnc1C#N [Example 86, 5-Bromo-2-cyanopyridin-3-yl 3-[4-(4-chlorothiazol-2-yl)-1H-1,2,3-triazol-1-yl]-3-deoxy-2-O-ethyl-1-thio-α-D-galactopyranoside]",,0.022 µM,0.17 µM,
"CCO[C@@H]1[C@@H](n2cc(-c3csc(N)n3)nn2)[C@@H](O)[C@@H](CO)O[C@@H]1Sc1ccc(Cl)c(Cl)c1 [Example 87, 3,4-Dichlorophenyl 3-[4-(2-aminothiazol-4-yl)-1H-1,2,3-triazol-1-yl]-3-deoxy-2-O-ethyl-1-thio-α-D-galactopyranoside]",,0.11 µM,5.5 µM,
CCOC1C(n2cc(-c3csc(N)n3)nn2)[C@@H](O)C(CO)O[C@@H]1Sc1ccc(C#N)c(Cl)c1 (stereo partly drawn) [Example 88],,0.13 µM,7.7 µM,
"N#Cc1ccc(S[C@@H]2C[C@@H](n3cc(-c4csc(O)n4)nn3)[C@@H](O)[C@@H](CO)O2)cc1Cl [Example 89, 3-Chloro-4-cyanophenyl 2,3-dideoxy-3-[4-(2-hydroxythiazol-4-yl)-1H-1,2,3-triazol-1-yl]-1-thio-α-D-galactopyranoside]",,0.21 µM,10.5 µM,
"CCO[C@@H]1[C@@H](n2cc(-c3nc(Cl)cs3)nn2)[C@@H](O)[C@@H](CO)O[C@@H]1Sc1cc(Br)cnc1C(=O)N(C)C [Example 90, 5-Bromo-2-(N,N-dimethylcarbamoyl)pyridin-3-yl 3-[4-(4-chlorothiazol-2-yl)-1H-1,2,3-triazol-1-yl]-3-deoxy-2-O-ethyl-1-thio-α-D-galactopyranoside]",,0.0085 µM,0.044 µM,
"C#Cc1cnc(C(=O)N(C)C)c(S[C@H]2O[C@H](CO)[C@H](O)[C@H](n3cc(-c4nc(Cl)cs4)nn3)[C@H]2OC)c1 [Example 91, 5-Ethynyl-2-(N,N-dimethylcarbamoyl)pyridin-3-yl 3-[4-(4-chlorothiazol-2-yl)-1H-1,2,3-triazol-1-yl]-3-deoxy-2-O-methyl-1-thio-α-D-galactopyranoside]",,0.024 µM,0.051 µM,
"C#Cc1cnc(C(=O)N2CCC2)c(S[C@H]2OC(CO)[C@H](O)C(n3cc(-c4nc(Cl)cs4)nn3)C2OC)c1 (stereo partly drawn) [Example 92, 2-(N-Azetidinylcarbamoyl)-5-ethynylpyridin-3-yl 3-[4-(4-chlorothiazol-2-yl)-1H-1,2,3-triazol-1-yl]-3-deoxy-2-O-methyl-1-thio-α-D-galactopyranoside]",,0.032 µM,0.099 µM,
"CNC(=O)c1ncc(Cl)cc1S[C@H]1O[C@H](CO)[C@H](O)[C@H](n2cc(-c3nc(Cl)cs3)nn2)[C@H]1OC [Example 93, 5-Chloro-2-(N-methylcarbamoyl)pyridin-3-yl 3-[4-(4-chlorothiazol-2-yl)-1H-1,2,3-triazol-1-yl]-3-deoxy-2-O-methyl-1-thio-α-D-galactopyranoside]",,0.015 µM,0.048 µM,
"CCNC(=O)c1ncc(Cl)cc1S[C@H]1O[C@H](CO)[C@H](O)[C@H](n2cc(-c3nc(Cl)cs3)nn2)[C@H]1OC [Example 94, 5-Chloro-2-(N-ethylcarbamoyl)pyridin-3-yl 3-[4-(4-chlorothiazol-2-yl)-1H-1,2,3-triazol-1-yl]-3-deoxy-2-O-methyl-1-thio-α-D-galactopyranoside]",,0.012 µM,0.074 µM,
"CCO[C@@H]1[C@@H](n2cc(-c3nc(Cl)cs3)nn2)[C@@H](O)[C@@H](CO)O[C@@H]1Sc1cc(Cl)cnc1C(=O)NC [Example 95, 5-Chloro-2-(N-methylcarbamoyl)pyridin-3-yl 3-[4-(4-chlorothiazol-2-yl)-1H-1,2,3-triazol-1-yl]-3-deoxy-2-O-ethyl-1-thio-α-D-galactopyranoside]",,0.008 µM,0.093 µM,
"CO[C@@H]1[C@@H](n2cc(-c3nc(Cl)cs3)nn2)[C@@H](O)[C@@H](CO)O[C@@H]1Sc1cc(Cl)ccc1C#N [Example 96, 5-Chloro-2-cyanophenyl 3-[4-(4-chlorothiazol-2-yl)-1H-1,2,3-triazol-1-yl]-3-deoxy-2-O-methyl-1-thio-α-D-galactopyranoside]",,0.022 µM,0.21 µM,
"CO[C@@H]1[C@@H](n2cc(-c3nc(Cl)cs3)nn2)[C@@H](O)[C@@H](CO)O[C@@H]1Sc1ccc2ncsc2c1 [Example 97, 1,3-Benzothiazol-6-yl 3-[4-(4-chlorothiazol-2-yl)-1H-1,2,3-triazol-1-yl]-3-deoxy-2-O-methyl-1-thio-α-D-galactopyranoside]",,0.083 µM,0.32 µM,
"CO[C@@H]1[C@@H](n2cc(-c3csc(O)n3)nn2)[C@@H](O)[C@@H](CO)O[C@@H]1Sc1ccc2ncsc2c1 [Example 98, 1,3-Benzothiazol-6-yl 3-deoxy-3-[4-(2-hydroxythiazol-4-yl)-1H-1,2,3-triazol-1-yl]-2-O-methyl-1-thio-α-D-galactopyranoside]",,0.064 µM,6.5 µM,
"CO[C@@H]1[C@@H](n2cc(-c3csc(N)n3)nn2)[C@@H](O)[C@@H](CO)O[C@@H]1Sc1ccc2ncsc2c1 [Example 99, 1,3-Benzothiazol-6-yl 3-[4-(2-aminothiazol-4-yl)-1H-1,2,3-triazol-1-yl]-3-deoxy-2-O-methyl-1-thio-α-D-galactopyranoside]",,0.18 µM,7.5 µM,
"CO[C@@H]1[C@@H](n2cc(-c3nc(Cl)cs3)nn2)[C@@H](O)[C@@H](CO)O[C@@H]1Sc1cc2scnc2cc1C#N [Example 100, 5-Cyano-1,3-benzothiazol-6-yl 3-[4-(4-chlorothiazol-2-yl)-1H-1,2,3-triazol-1-yl]-3-deoxy-2-O-methyl-1-thio-α-D-galactopyranoside]",,0.032 µM,0.18 µM,
"CO[C@@H]1[C@@H](n2cc(-c3nc(Cl)cs3)nn2)[C@@H](O)[C@@H](CO)O[C@@H]1Sc1cnc2ncsc2c1 [Example 101, Thiazolo[4,5-b]pyridin-6-yl 3-[4-(4-chlorothiazol-2-yl)-1H-1,2,3-triazol-1-yl]-3-deoxy-2-O-methyl-1-thio-α-D-galactopyranoside]",,0.11 µM,0.4 µM,
"CO[C@@H]1[C@@H](n2cc(-c3nc(Cl)cs3)nn2)[C@@H](O)[C@@H](CO)O[C@@H]1Sc1cncc(SC)c1 [Example 102, 5-Methylsulfanylpyridin-3-yl 3-[4-(4-chlorothiazol-2-yl)-1H-1,2,3-triazol-1-yl]-3-deoxy-2-O-methyl-1-thio-α-D-galactopyranoside]",,0.19 µM,0.42 µM,
"CO[C@@H]1[C@@H](n2cc(-c3nc(Cl)cs3)nn2)[C@@H](O)[C@@H](CO)O[C@@H]1Sc1cncc(SC(F)(F)F)c1 [Example 103, 5-(Trifluoromethylsulfanyl)pyridin-3-yl 3-[4-(4-chlorothiazol-2-yl)-1H-1,2,3-triazol-1-yl]-3-deoxy-2-O-methyl-1-thio-α-D-galactopyranoside]",,0.33 µM,1 µM,
OC[C@H]1O[C@@H](O[C@H]2[C@H](O)[C@@H](O)C(O)O[C@@H]2CO)[C@H](O)[C@@H](O)[C@H]1O (stereo partly drawn) [lactose],,,,100 to 1000 µM
